Assays:
[1] = target: T1, 20S proteasome chymotrypsin-like (CT-L) activity (Oryctolagus cuniculus, UniProt G1T4Q9); assay: In vitro proteasome activity assay, CT-L (Suc-LLVY-AMC); assay type: biochemical, rabbit; conditions: purified 20S proteasome
T1 sequence (G1T4Q9 1-263): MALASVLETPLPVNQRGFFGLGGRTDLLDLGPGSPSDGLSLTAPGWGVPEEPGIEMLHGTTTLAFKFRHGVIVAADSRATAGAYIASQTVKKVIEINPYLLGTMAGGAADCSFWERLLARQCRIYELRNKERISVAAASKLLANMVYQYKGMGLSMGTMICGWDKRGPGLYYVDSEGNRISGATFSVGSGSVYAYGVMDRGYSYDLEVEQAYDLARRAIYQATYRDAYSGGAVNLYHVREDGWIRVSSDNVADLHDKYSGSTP
Protocol: (§1) The assays were performed in vitro using purified 20S proteasome/inhibitor mixtures, with the activity of each subunit of the proteasome assessed upon incubation with its respective target peptide.
(§2) Purified rabbit 20S proteasome and fluorogenic CT-L substrate (Suc-LLVY-AMC) were purchased from Boston Biochem (Cambridge, Mass., USA). The T-L and CP-L fluorogenic substrates (Ac-RLR-AMC and Z-nLPnLD-AMC) were purchased from Enzo Life Sciences (Farmingdale, N.Y., USA). The 20S proteasome was diluted to 0.2 μg/μL in 20S proteasome buffer (50 mM HEPES pH 7.6, 150 mM NaCl and 1 mM DDT) and stored at −80° C. Purified 20S proteasome (8 ng) was pre-incubated with the indicated concentrations of inhibitors for 15 minutes and subsequently added to the AMC-labeled substrate peptide (50 μM) in assay buffer (25 mM HEPES, pH 7.5, 0.5 mM EDTA, 0.05% NP-40, and 0.001% SDS (w/v)) at 37° C. for 2 hours.

[2] = target: T2, 20S proteasome T-L activity (Oryctolagus cuniculus, UniProt G1SWK8); assay: In vitro proteasome activity assay, T-L (Ac-RLR-AMC); assay type: biochemical, rabbit; conditions: purified 20S proteasome; highest concentration tested 25,000 nM
T2 construct: purchased Boston Biochem
T2 sequence (G1SWK8 1-271): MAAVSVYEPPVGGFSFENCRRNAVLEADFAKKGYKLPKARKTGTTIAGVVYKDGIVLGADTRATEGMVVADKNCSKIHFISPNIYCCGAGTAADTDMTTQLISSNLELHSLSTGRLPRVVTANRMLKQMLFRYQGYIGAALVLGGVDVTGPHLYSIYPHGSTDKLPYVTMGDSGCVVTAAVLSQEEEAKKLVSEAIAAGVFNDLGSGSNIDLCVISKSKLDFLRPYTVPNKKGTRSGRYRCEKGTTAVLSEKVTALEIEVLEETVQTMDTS
Protocol: as §1, §2

[3] = target: T3, 20S proteasome CP-L activity (Oryctolagus cuniculus, UniProt A0A5F9DQW2); assay: In vitro proteasome activity assay, CP-L (Z-nLPnLD-AMC); assay type: biochemical, rabbit; conditions: purified 20S proteasome; highest concentration tested 25,000 nM
T3 construct: Purified rabbit 20S proteasome
T3 sequence (A0A5F9DQW2 1-212): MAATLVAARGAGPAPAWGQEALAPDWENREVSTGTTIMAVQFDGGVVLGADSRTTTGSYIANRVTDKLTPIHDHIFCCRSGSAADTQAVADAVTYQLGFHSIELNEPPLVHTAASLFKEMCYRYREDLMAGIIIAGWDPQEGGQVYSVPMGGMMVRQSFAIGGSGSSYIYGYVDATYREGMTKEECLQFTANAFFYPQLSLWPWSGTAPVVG
Protocol: We initially determined the ability of the novel tripeptide MG132 analogues 1-6 and the macrocycles 3a and 4a to inhibit the three separate protease activities of the 20S proteasome (CT-L, -T-L and CP-L). The assays were performed in vitro using purified 20S proteasome/inhibitor mixtures, with the activity of each subunit of the proteasome assessed upon incubation with its respective target peptide. […] In addition, there is no apparent clear-cut preference for the length of tether (compare compounds 1 to 4), while the introduction of an aryl group at P3 (as in 6) is well tolerated.
as §2, with “hours. Fluorescent substrate cleavage by the 20S proteasome was linear during this incubation timeframe (Supplementary Figure S4. Hydrolysed 7-amino-4-methylcoumarin (AMC) was subsequently detected with the FLUOstar OPTIMA microplatefluorometer at excitation/emission of 390/460 nm. The activity was estimated in relative fluorescence units and half of the maximal inhibitory activity of the proteasome is represented by IC50 values. A minimum of three biological replicates were performed for each data point.” for “hours.”

[4] = test system: WE-68 Ewing's sarcoma cells; assay: Cell viability assay (7AAD, 48 hours), WE-68; assay type: cell-based; conditions: 48 hours exposure; read-out: Cancer cell lines IC50 (μM) WE-68
Protocol: (§3) Cell viability assays were performed as previously described. Briefly, cells were seeded in 96 well microtiterplates at a density of 3×10^4 cells per well in the presence of the indicated chemical. Cells were harvested 48 hours post-treatment, centrifuged at 1,300×g, washed in phosphate-buffered saline (PBS) and stained with 7AAD solution (2 μg/mL) (7-amino-actinomycin-D, Invitrogen, Carlsbad, Calif.) for 10 mins at room temperature. Viable cells were determined with the use of a FACS Calibur flow cytometer (Becton Dickinson Immunocytometry Systems), and analyzed with the use of FLOWJO (Tree Star, Inc) and GraphPad Prism (GraphPad Software Inc).
(§4) WE-68 and VH-64 Ewing's sarcoma cells were kindly supplied by F. van Valen (Department of Orthopaedic Surgery, Westfalische-Wilhelms-University, Germany).TC-252 and STA-ET-1 Ewing's sarcoma cells were kindly provided by G. Hamilton (Department of Surgery, University of Vienna, Austria) or P. Ambros (Children's Cancer Research Institute, St Anna Children's Hospital, Vienna, Austria). Primary human embryonic fibroblasts or primary human osteoblasts were collected from the Women's and Children's Hospital (North Adelaide, South Australia, Australia) or Royal Adelaide Hospital with patient consent. Mouse Embryonic Fibroblasts (MEFs) and its p53-null derivative were kindly supplied by Guillermina Lozano (Department of Genetics, Anderson Cancer Centre, University of Texas, Houston, Tex., USA). WE-68 cell lines were grown in RPMI-1640 media, whilst human embryonic fibroblasts and MEFs were grown in Dulbecco's Modified Eagle's Medium (DMEM). Media was supplemented with 10% FCS, 1% PSG and 10 mM HEPES. All cells were maintained at 37° C. in a humidified atmosphere of 5% CO2.

[5] = test system: VH-64 Ewing's sarcoma cells; assay: Cell viability assay (7AAD, 48 hours), VH-64; assay type: cell-based; conditions: 48 hours exposure; read-out: Cancer cell lines IC50 (μM) VH-64
Protocol: as §3, §4

[6] = test system: STA-ET-1 Ewing's sarcoma cells; assay: Cell viability assay (7AAD, 48 hours), STA-ET-1; assay type: cell-based; conditions: 48 hours exposure; read-out: Cancer cell lines IC50 (μM) STA-ET-1
Protocol: as §3, §4

[7] = test system: TC-252 Ewing's sarcoma cells; assay: Cell viability assay (7AAD, 48 hours), TC-252; assay type: cell-based; conditions: 48 hours exposure; read-out: Cancer cell lines IC50 (μM) TC-252
Protocol: as §3, §4

[8] = test system: primary human embryonic fibroblasts; assay: Cell viability assay (7AAD, 48 hours), normal fibroblasts; assay type: cell-based; conditions: Fibroblast, 48 hours exposure, read-out: Normal cell lines IC50 (μM) Fibroblasts
Protocol: as §3, §4

[9] = test system: primary human osteoblasts; assay: Cell viability assay (7AAD, 48 hours), normal osteoblasts; assay type: cell-based; conditions: Osteoblast, 48 hours exposure, read-out: Normal cell lines IC50 (μM) Osteoblasts
Protocol: as §3, §4

[10] = test system: panel of sarcoma cell lines (WE-68, VH-64, STA-ET-1, TC-252); assay: Cell viability assay, panel of four sarcoma cell lines (average); assay type: cell-based
Protocol: as §3, §4

[11] = test system: normal cell lines (fibroblasts, osteoblasts); assay: Cell viability assay, normal cell lines (average); assay type: cell-based; conditions: Homo sapiens; average of fibroblasts and osteoblasts
Protocol: as §3, §4

[12] = target: T4, ovine calpain 1 (o-CAPN1) (Ovis aries, UniProt B2ZA85); assay: Fluorometric calpain assay (BODIPY-Fl casein), ovine calpain 1; assay type: biochemical
T4 sequence (B2ZA85 1-716): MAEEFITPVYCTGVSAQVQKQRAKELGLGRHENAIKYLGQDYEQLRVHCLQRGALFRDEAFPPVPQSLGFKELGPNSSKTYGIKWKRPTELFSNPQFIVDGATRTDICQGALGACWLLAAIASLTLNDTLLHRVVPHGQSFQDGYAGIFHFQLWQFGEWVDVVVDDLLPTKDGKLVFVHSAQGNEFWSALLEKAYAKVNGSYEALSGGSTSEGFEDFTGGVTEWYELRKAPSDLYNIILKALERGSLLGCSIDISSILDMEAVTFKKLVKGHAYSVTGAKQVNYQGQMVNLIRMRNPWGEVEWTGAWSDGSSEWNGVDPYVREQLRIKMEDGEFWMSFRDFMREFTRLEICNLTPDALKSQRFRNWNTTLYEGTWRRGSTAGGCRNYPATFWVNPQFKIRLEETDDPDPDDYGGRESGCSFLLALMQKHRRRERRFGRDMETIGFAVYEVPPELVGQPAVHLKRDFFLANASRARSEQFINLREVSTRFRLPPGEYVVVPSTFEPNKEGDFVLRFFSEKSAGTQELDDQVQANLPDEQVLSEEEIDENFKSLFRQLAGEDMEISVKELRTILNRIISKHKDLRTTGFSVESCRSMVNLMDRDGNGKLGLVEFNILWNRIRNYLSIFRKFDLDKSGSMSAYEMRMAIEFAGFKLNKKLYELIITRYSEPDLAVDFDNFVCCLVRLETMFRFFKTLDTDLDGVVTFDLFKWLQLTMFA
T4 sequence (A0ACI6PYI8 1-265 partner): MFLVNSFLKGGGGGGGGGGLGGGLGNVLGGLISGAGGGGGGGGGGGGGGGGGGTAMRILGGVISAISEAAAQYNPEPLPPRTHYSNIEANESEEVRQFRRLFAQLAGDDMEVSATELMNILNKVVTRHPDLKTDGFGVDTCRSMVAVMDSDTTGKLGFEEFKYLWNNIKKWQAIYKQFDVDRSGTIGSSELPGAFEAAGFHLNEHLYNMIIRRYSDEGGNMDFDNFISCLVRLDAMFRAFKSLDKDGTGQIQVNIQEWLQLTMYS
Protocol: Fluorometric assays (excitation: 485 nm, emission: 520 nm) with ovine calpains 1 and 2 were done with a (BMG Labtech) Fluostar Optima plate reader at 37.0±0.2° C. in 96-well black (Greiner Bio-one) microassay plates. Calpains 1 and 2, partially purified from sheep lung by hydrophobic interaction and ion-exchange chromatography, were diluted in 20 mM MOPS, pH 7.5, containing 2 mM EGTA, 2 mM EDTA and 0.035% v/v 2-mercaptoethanol to give a linear response over the course of the assay. The substrate BODIPY-F1 casein was prepared as reported. {1} A 0.0005% solution of the substrate in 10 mM MOPS, pH 7.5, 10 mM CaCl2, 0.1 mM NaN3, 0.1% v/v 2-mercaptoethanol was prepared freshly before each experiment. […]
Inhibition studies were performed in the presence of seven different inhibitor concentrations and 1% v/v DMSO in a volume of 200 μL: 50 μl of inhibitor solution was added to a microassay well followed by 50 μl of calpain-containing solution. The reaction was initiated by adding 100 μl of BODIPY-F1 casein solution to each well and progress curves were monitored every 30 s over 570 s. Uninhibited enzyme activity was determined by adding 4% v/v DMSO in water instead of inhibitor solution. […]
The average value of rates obtained in two separate experiments, each in triplicate, was plotted versus the inhibitor concentration and IC50 values were calculated with the following equation: […]

| IC50 [1] | IC50 [2] | IC50 [3] | IC50 [4] | IC50 [5] | IC50 [6] | IC50 [7] | IC50 ([10]; average of four sarcoma cell lines, read-out: Average IC50 for cancer cell lines) | melting point | Structure (SMILES) | IC50 [8] | IC50 [9] | Therapeutic window ([10]; fold change in potency (IC50) against cancer cell line versus normal cell line) | IC50 [11] | isoform selectivity o-CAPN2 vs. o-CAPN1 [12] |
| --- | --- | --- | --- | --- | --- | --- | --- | --- | --- | --- | --- | --- | --- | --- |
| 34 nM | > 25000 nM | > 25000 nM | 4.5 µM | 5.8 µM | 6.5 µM | 5 µM | 5.4 µM | 71 to 73 °C | C#CCOc1ccc(C[C@@H](C=O)NC(=O)[C@H](CC(C)C)NC(=O)[C@H](CN=[N+]=[N-])NC(=O)OCc2ccccc2)cc1 [Compound 1] | 12.2 µM | 23.7 µM | ×3.3 | 18 µM |  |
|  |  |  |  |  |  |  |  |  | CC(C)C[C@@H](C=O)NC(=O)[C@@H]1CCCCCCCCCCCC(=O)c2ccc([nH]2)C(=O)N1 [Compound 1c, (S)—N—((S)-4-methyl-1-oxopentan-2-yl)-2,16-dioxo-3,20-diazabicyclo[15.2.1]icosa-1(19),17-diene-4-carboxamide] |  |  |  |  | no isoform selectivity |
|  |  |  |  |  |  |  |  |  | CC(C)CC(C=O)NC(=O)C1CCCCOc2ccc(cc2)CCC(=O)c2ccc([nH]2)C(=O)N1 (stereo not drawn) [Compound 2c] |  |  |  |  | no isoform selectivity |
